Data as given in ChEMBL document CHEMBL1138964, “Synthesis and efficacy of 1-[bis(4-fluorophenyl)-methyl]piperazine derivatives for acetylcholinesterase inhibition, as a stimulant of central cholinergic neurotransmission in Alzheimer's disease” (Bioorg Med Chem Lett, 2006).

Experiments:
Acetylcholinesterase [1] = target: T1, Acetylcholinesterase (Rattus norvegicus, UniProt P37136); assay: Inhibition of rat brain homogenate AchE
T1 sequence (P37136 whole entry): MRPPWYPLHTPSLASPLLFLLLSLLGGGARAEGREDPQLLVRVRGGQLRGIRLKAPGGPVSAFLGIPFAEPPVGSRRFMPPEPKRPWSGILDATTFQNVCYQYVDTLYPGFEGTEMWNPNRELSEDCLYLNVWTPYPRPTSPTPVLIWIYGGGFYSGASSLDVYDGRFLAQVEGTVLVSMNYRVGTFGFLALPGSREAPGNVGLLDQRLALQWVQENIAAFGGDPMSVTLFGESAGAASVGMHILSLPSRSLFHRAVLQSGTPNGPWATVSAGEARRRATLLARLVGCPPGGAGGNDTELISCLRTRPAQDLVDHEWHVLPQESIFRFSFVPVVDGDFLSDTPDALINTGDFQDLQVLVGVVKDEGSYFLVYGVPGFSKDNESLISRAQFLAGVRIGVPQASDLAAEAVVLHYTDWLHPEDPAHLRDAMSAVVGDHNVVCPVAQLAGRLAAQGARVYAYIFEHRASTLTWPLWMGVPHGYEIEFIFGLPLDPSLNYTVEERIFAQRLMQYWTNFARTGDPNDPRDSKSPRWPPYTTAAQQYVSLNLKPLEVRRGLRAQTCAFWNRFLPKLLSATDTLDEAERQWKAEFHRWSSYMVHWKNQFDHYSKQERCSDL

Acetylcholinesterase [2] = target: Acetylcholinesterase (Homo sapiens, UniProt P22303); assay: Inhibition of human serum AchE
Acetylcholinesterase [3] = target: Acetylcholinesterase (Electrophorus electricus, UniProt O42275); assay: Inhibition of electric eel AchE
Rattus norvegicus [4] = assay: Antiamnesic effect against scopolamine-induced memory loss in passive avoidance step-down task paradigm in rat assessed as number of mistakes at 0.1 mg/kg, ip; format: functional; conditions: route intraperitoneal
Rattus norvegicus [5] = assay: Antiamnesic effect in passive avoidance step-down task paradigm in rat assessed as number of mistakes at 0.4 mg/kg, ip; format: functional; conditions: route intraperitoneal

Acetylcholinesterase (Electrophorus electricus, UniProt O42275), sequence (O42275 whole entry): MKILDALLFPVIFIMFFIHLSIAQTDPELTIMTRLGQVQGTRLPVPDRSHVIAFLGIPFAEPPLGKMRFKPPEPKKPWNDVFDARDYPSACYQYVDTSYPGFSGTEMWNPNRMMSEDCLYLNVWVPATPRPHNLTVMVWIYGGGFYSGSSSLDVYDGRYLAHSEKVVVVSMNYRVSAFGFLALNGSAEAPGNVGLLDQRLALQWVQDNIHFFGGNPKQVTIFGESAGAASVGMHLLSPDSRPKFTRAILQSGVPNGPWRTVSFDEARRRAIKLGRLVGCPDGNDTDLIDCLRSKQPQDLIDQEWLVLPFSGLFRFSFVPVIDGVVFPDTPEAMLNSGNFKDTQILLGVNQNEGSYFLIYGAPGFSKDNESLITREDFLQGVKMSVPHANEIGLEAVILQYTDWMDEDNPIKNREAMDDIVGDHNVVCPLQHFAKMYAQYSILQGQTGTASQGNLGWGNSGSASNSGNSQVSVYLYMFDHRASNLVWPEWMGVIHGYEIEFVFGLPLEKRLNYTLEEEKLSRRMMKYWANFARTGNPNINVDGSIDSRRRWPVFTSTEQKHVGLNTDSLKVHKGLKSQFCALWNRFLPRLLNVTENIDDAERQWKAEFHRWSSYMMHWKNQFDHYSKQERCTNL
Acetylcholinesterase (Homo sapiens, UniProt P22303), sequence (P22303 whole entry): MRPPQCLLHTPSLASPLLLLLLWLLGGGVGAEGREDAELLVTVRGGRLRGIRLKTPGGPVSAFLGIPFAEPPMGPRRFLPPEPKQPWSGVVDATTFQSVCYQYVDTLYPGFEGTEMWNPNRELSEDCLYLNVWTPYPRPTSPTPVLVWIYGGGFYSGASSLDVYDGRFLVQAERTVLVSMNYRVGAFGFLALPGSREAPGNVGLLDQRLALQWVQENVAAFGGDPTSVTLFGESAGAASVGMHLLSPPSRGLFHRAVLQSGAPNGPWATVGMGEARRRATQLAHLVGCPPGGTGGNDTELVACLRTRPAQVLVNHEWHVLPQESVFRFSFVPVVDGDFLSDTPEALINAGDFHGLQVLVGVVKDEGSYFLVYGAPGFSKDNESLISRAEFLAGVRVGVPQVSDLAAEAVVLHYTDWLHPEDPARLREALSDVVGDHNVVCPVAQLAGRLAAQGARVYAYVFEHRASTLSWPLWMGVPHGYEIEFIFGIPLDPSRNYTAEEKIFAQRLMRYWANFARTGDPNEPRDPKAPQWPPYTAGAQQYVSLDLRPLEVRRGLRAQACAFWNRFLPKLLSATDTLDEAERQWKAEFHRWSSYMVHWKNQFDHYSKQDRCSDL

SMILES: Cc1cc2c(cc1CN1CCN(C(c3ccc(F)cc3)c3ccc(F)cc3)CC1)OCO2
- IC50 (Acetylcholinesterase [1]): Not Active
- IC50 (Acetylcholinesterase [2]): 1.34 µM
- IC50 (Acetylcholinesterase [3]): 1.14 µM
- Activity (Rattus norvegicus [4]): 33

SMILES: CC1=C(CCN2CCN(C(c3ccc(F)cc3)c3ccc(F)cc3)CC2)C(=O)C2CCCCC2=N1 (stereo not given)
- IC50 (Acetylcholinesterase [1]): Not Active
- IC50 (Acetylcholinesterase [2]): 1.07 µM
- IC50 (Acetylcholinesterase [3]): 1.21 µM
- Activity (Rattus norvegicus [4]): 34

SMILES: CN1[C@@H]2C[C@@H](OC(=O)[C@H](CO)c3ccccc3)C[C@H]1[C@@H]1O[C@@H]12 [SCOPOLAMINE]
- Activity (Rattus norvegicus [5]): 35

SMILES: Cc1nc2ccccn2c(=O)c1CCN1CCN(C(c2ccc(F)cc2)c2ccc(F)cc2)CC1
- IC50 (Acetylcholinesterase [1]): Not Active
- IC50 (Acetylcholinesterase [2]): 3.2 µM
- IC50 (Acetylcholinesterase [3]): 2.13 µM
- Activity (Rattus norvegicus [4]): 32

SMILES: Fc1ccc(C(c2ccc(F)cc2)N2CCN(CCN3CCCC3)CC2)cc1
- IC50 (Acetylcholinesterase [1]; read-out: IC50): 0.0187 µM
- IC50 (Acetylcholinesterase [2]): 0.021 µM
- IC50 (Acetylcholinesterase [3]): 0.0176 µM
- Activity (Rattus norvegicus [4]): 10

SMILES: COc1cc(Br)c(CN2CCN(C(c3ccc(F)cc3)c3ccc(F)cc3)CC2)cc1OC
- IC50 (Acetylcholinesterase [1]): Not Active
- IC50 (Acetylcholinesterase [2]): 1.01 µM
- IC50 (Acetylcholinesterase [3]): 0.715 µM
- Activity (Rattus norvegicus [4]): 34

SMILES: Fc1ccc(C(c2ccc(F)cc2)N2CCN(CCN3CCCCC3)CC2)cc1
- IC50 (Acetylcholinesterase [1]; read-out: IC50): 0.0937 µM
- IC50 (Acetylcholinesterase [2]): 0.126 µM
- IC50 (Acetylcholinesterase [3]): 0.135 µM
- Activity (Rattus norvegicus [4]): 12

SMILES: Fc1ccc(C(c2ccc(F)cc2)N2CCN(CCN3CCOCC3)CC2)cc1
- IC50 (Acetylcholinesterase [1]; read-out: IC50): 0.2 µM
- IC50 (Acetylcholinesterase [2]): 0.284 µM
- IC50 (Acetylcholinesterase [3]): 0.253 µM
- Activity (Rattus norvegicus [4]): 16

SMILES: N#Cc1ccccc1-c1ccc(CN2CCN(C(c3ccc(F)cc3)c3ccc(F)cc3)CC2)cc1
- IC50 (Acetylcholinesterase [1]; read-out: IC50): 0.0375 µM
- IC50 (Acetylcholinesterase [2]): 0.0736 µM
- IC50 (Acetylcholinesterase [3]): 0.0705 µM
- Activity (Rattus norvegicus [4]): 11

SMILES: CN(C)C(=O)Oc1cccc([N+](C)(C)C)c1 [NEOSTIGMINE METHYLSULFATE]
- IC50 (Acetylcholinesterase [1]; read-out: IC50): 0.0375 µM
- IC50 (Acetylcholinesterase [3]): 41.1 µM
